Data on two molecules can be found in article PMC8911752, “The Synthesis and Initial Evaluation of MerTK Targeted PET Agents” (Molecules, 2022).

Broadly, the Ki is the dissociation constant of the complex between target and ligand, obtained from inhibition or displacement. The term logP denotes the decadic logarithm of the partition coefficient of the neutral form, usually between octanol and water. A low value points to lower lipophilicity.

The subject of one data set is kinome. More on the design: method as in PMID 34038857. Conditions: at 100 nM, against the kinome; cited from earlier work.
The target in a further data set is T1, MerTK (Homo sapiens, UniProt Q12866).
T1 sequence (Q12866 21-999): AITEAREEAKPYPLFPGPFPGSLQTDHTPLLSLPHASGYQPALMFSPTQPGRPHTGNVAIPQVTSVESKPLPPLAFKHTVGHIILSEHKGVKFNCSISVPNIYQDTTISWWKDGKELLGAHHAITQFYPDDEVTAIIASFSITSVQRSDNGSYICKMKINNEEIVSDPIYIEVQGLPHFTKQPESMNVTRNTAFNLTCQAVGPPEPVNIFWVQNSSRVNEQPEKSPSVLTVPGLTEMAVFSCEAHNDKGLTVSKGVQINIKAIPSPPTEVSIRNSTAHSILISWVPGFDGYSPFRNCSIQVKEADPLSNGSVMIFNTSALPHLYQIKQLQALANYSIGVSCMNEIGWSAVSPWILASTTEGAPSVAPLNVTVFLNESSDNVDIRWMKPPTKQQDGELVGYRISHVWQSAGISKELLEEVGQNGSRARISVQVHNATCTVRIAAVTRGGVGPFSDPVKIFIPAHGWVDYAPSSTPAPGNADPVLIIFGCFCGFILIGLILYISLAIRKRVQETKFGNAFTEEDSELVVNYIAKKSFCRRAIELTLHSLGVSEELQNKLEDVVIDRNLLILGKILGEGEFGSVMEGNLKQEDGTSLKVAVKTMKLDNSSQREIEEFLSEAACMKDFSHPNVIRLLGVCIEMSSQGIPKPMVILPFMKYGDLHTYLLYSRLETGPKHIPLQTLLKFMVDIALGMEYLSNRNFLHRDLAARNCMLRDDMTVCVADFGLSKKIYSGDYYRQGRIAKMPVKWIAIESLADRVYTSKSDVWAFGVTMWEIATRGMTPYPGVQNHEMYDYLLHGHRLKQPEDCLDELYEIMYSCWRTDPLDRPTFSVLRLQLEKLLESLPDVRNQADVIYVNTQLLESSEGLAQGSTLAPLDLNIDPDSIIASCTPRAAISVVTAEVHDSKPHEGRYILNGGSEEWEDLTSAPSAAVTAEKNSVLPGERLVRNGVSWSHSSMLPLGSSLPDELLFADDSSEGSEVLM
More on the design: method as in PMID 34038857. Conditions: read-out: Ki against MerTK; cited from earlier work.

Data set [1] can be described thus: 1-octanol/water partition coefficient (LogP) by gamma counting. Conditions: pH 7.4, sample pH around 7.4, n = 3, mean ± SD. The class given is physicochemical. On the procedure: In order to evaluate the hydrophilicity and lipophilicity of this fluorine-18 labeled agent [^18F]-MerTK-6, we measured the 1-octanol/water partition coefficient (LogP) of [^18F]-MerTK-6. The resulting fractions were counted using a gamma counter. The reaction was repeated three times.
The LogP value of the [^18F]-MerTK-6 was calculated by the gamma particle counts of samples in the aqueous phase or 1-octanol phase by Automatic Gamma Counter 2480-0010 (PerkinElmer Instruments Inc., Waltham, MA, USA).
The [^18F]-MerTK-6 was collected after HPLC purification. After reformulation (pH value around 7.4), 20 µL [^18F]-MerTK-6 sample in saline was added to the mixture of 1 mL Mili-Q® water and 1 mL 1-octanol in a 5 mL Eppendorf tube. The tube was shacked thoroughly and then let stand still for 5 min. Then the 100 µL 1-octanol phase and 100 µL aqueous phase were subjected to a gamma counter separately and the gamma counts were recorded (n = 3). The LogP value was then calculated and expressed as a mean value± standard derivation.

Data set [2] relates to B16F10 tumor-bearing mice. In words: PET imaging in B16F10 tumor-bearing mice. The data set is classed as in vivo. Conditions: for uptake in kidney / uptake in liver / uptake in muscle / uptake in tumor: i.v., PET ROI, n = 3. The protocol:
Evaluation of the PET agent [^18F]-MerTK-6 was performed on B16F10 tumor-bearing mice. At 30 min post-injection (p.i), the uptake in tumor, liver, kidney, and muscle was 4.65 ± 1.25, 14.79 ± 0.99, 10.42 ± 1.01, and 2.51 ± 0.48%ID/g, respectively. The uptake at 2 h p.i. was 4.79 ± 0.24, 9.72 ± 1.56, 5.34 ± 1.25, and 1.55 ± 0.23%ID/g, respectively. Overall, the tumor uptake was maintained at ~5%ID/g and the tumor to muscle contrast increased to 3.09 at 2 h p.i, compared with 1.86 at 0.5 h p.i.
All animal studies were reviewed and approved by The University of North Carolina at Chapel Hill Institutional Animal Care and Use Committee. The B16F10 tumor cell was obtained from the LCCC tissue culture facility (the University of North Carolina at Chapel Hill, Chapel Hill, NC, USA). The B16F10 tumor-bearing […] mouse model was prepared as described previously. Briefly, B16/F10 cells were subcutaneously injected on the right flank of C57BL/6 female mice (Jackson Laboratory). The tumor volume was measured daily. When the tumor size reached 100 mm^3, the mice were used for PET imaging studies.
B16F10 tumor-bearing mice (n = 3/group) were intravenously injected via the tail vein with tracers. At 30 min and 120 min post-injection, a 10-min static emission scan was acquired with a SuperArgus small-animal PET/CT scanner. The regions of interests (ROIs) were drawn over the tumor and other organs and calculated as %ID/g. The mean uptake and standard deviation were calculated.

On to `CCC[C@H](C)Nc1ncc2c(C3CCN(C(=O)c4cc(C)nc(C)c4)CC3)cn(C3CCC(O)CC3)c2n1` (some centres unmarked) [UNC5293], for which, in the data set on kinome, the “Ambit selectivity score S50” value is on record as 0.041. In addition, the Ki at MerTK was 0.19 nM.

Regarding `C[C@H](Nc1ncc2c(C3CCN(CC[18F])CC3)cn([C@H]3CC[C@H](O)CC3)c2n1)c1ccccc1` [[^18F]-MerTK-6], the logP in data set [1] was 1.56 ± 0.02. In addition, the “tumor to muscle ratio” value in data set [2] (0.5 h post-injection) is 1.86. In data set [2] (30 min post-injection), this molecule returned an uptake in kidney of 10.42 ± 1.01 %ID/g, an uptake in liver of 14.79 ± 0.99 %ID/g, an uptake in muscle of 2.51 ± 0.48 %ID/g and an uptake in tumor of 4.65 ± 1.25 %ID/g. In data set [2] (2 h post-injection), the “tumor to muscle ratio” value is recorded as 3.09, the uptake in kidney is on record as 5.34 ± 1.25 %ID/g, the uptake in liver is 9.72 ± 1.56 %ID/g and the uptake in muscle was determined as 1.55 ± 0.23 %ID/g. In data set [2] (2 h post-injection), this molecule yielded an uptake in tumor of 4.79 ± 0.24 %ID/g. In addition, the “tumor uptake (overall, maintained)” value in data set [2] (overall, 0.5 h to 2 h post-injection) is listed as ~ 5 %ID/g.
